Measured values as given in US7786141B2 (Vertex Pharmaceuticals Incorporated, priority 2004, dated 2010).

Legend:
M1 muscarinic receptor = target: T1, M1 muscarinic receptor (Homo sapiens, UniProt P11229); assay: Functional mobilization of intracellular calcium (FLIPR) in M1-CHO cells; assay type: cell-based; settings: M1 receptor, calcium mobilization; for Emax: read-out: M1 Efficacy
T1 construct: expressed in transfected cells; host or cells: CHO (M1-CHO)
T1 sequence (P11229 1-460): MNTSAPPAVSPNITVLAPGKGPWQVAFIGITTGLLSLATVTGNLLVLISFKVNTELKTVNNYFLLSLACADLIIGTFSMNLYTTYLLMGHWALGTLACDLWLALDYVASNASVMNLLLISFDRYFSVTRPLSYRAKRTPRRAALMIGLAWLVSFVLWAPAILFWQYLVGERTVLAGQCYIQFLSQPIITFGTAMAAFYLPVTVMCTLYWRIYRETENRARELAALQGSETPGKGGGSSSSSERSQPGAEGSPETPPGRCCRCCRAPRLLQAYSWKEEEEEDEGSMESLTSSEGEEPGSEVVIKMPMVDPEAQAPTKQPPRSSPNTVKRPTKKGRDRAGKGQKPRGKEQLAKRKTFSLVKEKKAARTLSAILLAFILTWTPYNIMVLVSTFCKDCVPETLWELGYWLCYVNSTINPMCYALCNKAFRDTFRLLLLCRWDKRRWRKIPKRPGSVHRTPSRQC
Method in brief: (§1)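 Two modes: direct compound addition for agonism, or 15 min compound pre-incubation (or co-application) before carbachol at EC80 for inhibition. Calcium signal from Fluo-3 AM or Calcium 3 dye in CHO cells, 1 mM probenecid, pH 7.4, read 60 sec at 488/540 nm; DMSO 0.5% final.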

M4 muscarinic receptor = target: T2, M4 muscarinic receptor (Homo sapiens, UniProt P08173); assay: Functional mobilization of intracellular calcium (FLIPR) in M4-CHO cells; assay type: cell-based; settings: M4 receptor, calcium mobilization; for Emax: read-out: M4 Efficacy
T2 construct: expressed in transfected cells; host or cells: CHO (M4-CHO)
T2 sequence (P08173 1-479): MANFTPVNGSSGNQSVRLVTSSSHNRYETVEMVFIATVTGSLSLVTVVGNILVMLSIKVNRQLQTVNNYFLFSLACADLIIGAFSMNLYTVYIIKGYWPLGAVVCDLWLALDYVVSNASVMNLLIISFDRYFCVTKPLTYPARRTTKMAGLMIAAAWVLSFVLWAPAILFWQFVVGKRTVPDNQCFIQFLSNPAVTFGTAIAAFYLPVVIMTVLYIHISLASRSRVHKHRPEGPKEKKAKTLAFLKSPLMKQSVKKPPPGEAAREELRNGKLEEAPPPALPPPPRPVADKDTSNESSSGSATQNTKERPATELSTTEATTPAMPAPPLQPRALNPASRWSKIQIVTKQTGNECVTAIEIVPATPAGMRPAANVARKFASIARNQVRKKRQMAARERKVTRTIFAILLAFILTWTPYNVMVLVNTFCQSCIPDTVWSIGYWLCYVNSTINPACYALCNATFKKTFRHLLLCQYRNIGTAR
Method in brief: as §1

| Structure (SMILES) | M1 Activity (M1 muscarinic receptor) | Emax (M1 muscarinic receptor) [%] | M4 Activity (M4 muscarinic receptor) | Emax (M4 muscarinic receptor) [%] | M1 Efficacy (M1 muscarinic receptor) | M4 Efficacy (M4 muscarinic receptor) |
| --- | --- | --- | --- | --- | --- | --- |
| Clc1ccc2c(c1)C1(CCN([C@H]3C[C@@H]4CC[C@H]3C4)CC1)CO2 [compound 181] | xx (activity was measured to be between 0.1 μM and 1.0 μM) | 65 to 85 | x (activity was measured to be greater than 1.0 μM) | 65 to 85 | – | – |
| COC(=O)N1CCC(CN2CCC3(CC2)C[C@H](NC(C)=O)c2ccccc23)CC1 [compound 182] | x (activity was measured to be greater than 1.0 μM) | 65 to 85 | x (activity was measured to be greater than 1.0 μM) | 65 to 85 | – | – |
| Fc1ccc2c(c1)C1(CCN(CC3CC4C=CC3C4)CC1)CN2 (stereo not drawn) [compound 183] | xx (activity was measured to be between 0.1 μM and 1.0 μM) | 65 to 85 | x (activity was measured to be greater than 1.0 μM) | 65 to 85 | – | – |
| CC(=O)N[C@H]1CC2(CCN(CC3CCCCC3)CC2)c2ccccc21 [compound 184] | xx (activity was measured to be between 0.1 μM and 1.0 μM) | > 85 | x (activity was measured to be greater than 1.0 μM) | 65 to 85 | – | – |
| CC(=O)NC1CC2(CCN(CC3CC4C=CC3C4)CC2)c2ccccc21 (stereo not drawn) [compound 185] | x (activity was measured to be greater than 1.0 μM) | – | x (activity was measured to be greater than 1.0 μM) | – | xx (efficacy was calculated to be between 85% and 65%) | xx (efficacy was calculated to be between 85% and 65%) |
| O=C(OCC(F)F)N1C2CCC1CC(N1CCC3(CC1)COc1ccc(F)cc13)C2 (stereo not drawn) [compound 186] | xxx (activity was measured to be less than 0.1 μM) | > 85 | x (activity was measured to be greater than 1.0 μM) | 65 to 85 | – | – |
| CC(=O)N1CC2(CCN(CC3CCCC3)CC2)c2cc(F)ccc21 [compound 187] | xx (activity was measured to be between 0.1 μM and 1.0 μM) | 65 to 85 | x (activity was measured to be greater than 1.0 μM) | 65 to 85 | – | – |
| CN(C)C(=O)N1CC2(CCN(C3CC4CCC(C3)N4C(=O)O[C@@H]3CCOC3)CC2)c2cc(F)ccc21 (stereo partly drawn) [compound 188] | x (activity was measured to be greater than 1.0 μM) | < 65 | x (activity was measured to be greater than 1.0 μM) | 65 to 85 | – | – |
| CCOC(=O)N1C2CCC1CC(N1CCC3(CC1)CN(C(=O)c1cc(C)nn1C(C)(C)C)c1ccc(F)cc13)C2 (stereo not drawn) [compound 189] | xxx (activity was measured to be less than 0.1 μM) | 65 to 85 | x (activity was measured to be greater than 1.0 μM) | 65 to 85 | – | – |
| CC(=O)N(C)[C@H]1CC2(CCN(C[C@H]3C[C@H]4CC[C@H]3C4)CC2)c2ccccc21 [compound 190] | x (activity was measured to be greater than 1.0 μM) | > 85 | x (activity was measured to be greater than 1.0 μM) | 65 to 85 | – | – |
| CCOC(=O)N1CCC(N2CCC3(CC2)C(=O)Nc2ccccc23)CC1 [compound 191] | xxx (activity was measured to be less than 0.1 μM) | 65 to 85 | x (activity was measured to be greater than 1.0 μM) | 65 to 85 | – | – |
| COC(=O)N1CC2(CCN(C3CC4CCC(C3)N4C(=O)O[C@@H]3CCOC3)CC2)c2cc(F)ccc21 (stereo partly drawn) [compound 192] | xxx (activity was measured to be less than 0.1 μM) | 65 to 85 | x (activity was measured to be greater than 1.0 μM) | 65 to 85 | – | – |
| CCOC(=O)N1CCC(N2CCC3(CC2)CN(C(C)=O)c2ccc(-c4ccc(OC)cc4)cc23)CC1 [compound 193] | x (activity was measured to be greater than 1.0 μM) | < 65 | x (activity was measured to be greater than 1.0 μM) | < 65 | – | – |
| CCOC(=O)N1CCC(N2CCC3(CC2)CN(C(=O)CC(C)(C)C)c2ccc(F)cc23)CC1 [compound 194] | xxx (activity was measured to be less than 0.1 μM) | > 85 | x (activity was measured to be greater than 1.0 μM) | 65 to 85 | – | – |
| COCCOC(=O)N1CC2(CCN(C3CC4CCC(C3)N4C(=O)OC3CCC3)CC2)c2cc(F)ccc21 (stereo not drawn) [compound 195] | xx (activity was measured to be between 0.1 μM and 1.0 μM) | < 65 | x (activity was measured to be greater than 1.0 μM) | < 65 | – | – |
| CC(=O)N[C@H]1CC2(CCN(C3CCCCC3)CC2)c2ccccc21 [compound 196] | xxx (activity was measured to be less than 0.1 μM) | 65 to 85 | x (activity was measured to be greater than 1.0 μM) | < 65 | – | – |
| CCOC(=O)N1C2CCC1CC(N1CCC3(CC1)CN(C(=O)Nc1ccc(F)cc1)c1ccc(F)cc13)C2 (stereo not drawn) [compound 197] | xx (activity was measured to be between 0.1 μM and 1.0 μM) | < 65 | x (activity was measured to be greater than 1.0 μM) | < 65 | – | – |
| O=C(O[C@@H]1CCOC1)N1CC2(CCN(C3CC4CCC(C3)N4C(=O)O[C@H]3CCOC3)CC2)c2cc(F)ccc21 (stereo partly drawn) [compound 198] | xx (activity was measured to be between 0.1 μM and 1.0 μM) | 65 to 85 | x (activity was measured to be greater than 1.0 μM) | < 65 | – | – |
| CCOC(=O)N1C2CCC1CC(N1CCC3(CC1)C(=O)Nc1ccccc13)C2 (stereo not drawn) [compound 199] | xx (activity was measured to be between 0.1 μM and 1.0 μM) | 65 to 85 | x (activity was measured to be greater than 1.0 μM) | < 65 | – | – |
| CC=CCOC(=O)N1C2CCC1CC(N1CCC3(CC1)CN(C(=O)N(C)C)c1ccc(F)cc13)C2 (stereo not drawn) [compound 200] | xx (activity was measured to be between 0.1 μM and 1.0 μM) | 65 to 85 | x (activity was measured to be greater than 1.0 μM) | < 65 | – | – |
| CC(=O)N1CC2(CCN(CC3CCN(C(=O)OC(C)C)CC3)CC2)c2cc(F)ccc21 [compound 202] | xx (activity was measured to be between 0.1 μM and 1.0 μM) | 65 to 85 | x (activity was measured to be greater than 1.0 μM) | < 65 | – | – |
| CN(C)C(=O)N1C2CCC1CC(N1CCC3(CC1)COc1ccc(F)cc13)C2 (stereo not drawn) [compound 203] | xxx (activity was measured to be less than 0.1 μM) | 65 to 85 | xx (activity was measured to be between 0.1 μM and 1.0 μM) | < 65 | – | – |
| Fc1ccc2c(c1)C1(CCN([C@H]3C[C@@H]4CC[C@@H]3C4)CC1)CO2 [compound 204] | xxx (activity was measured to be less than 0.1 μM) | 65 to 85 | x (activity was measured to be greater than 1.0 μM) | < 65 | – | – |
| CCOC(=O)N1C2CCC1CC(N1CCC3(CC1)CN(C(C)=O)c1ccccc13)C2 (stereo not drawn) [compound 205] | x (activity was measured to be greater than 1.0 μM) | < 65 | x (activity was measured to be greater than 1.0 μM) | < 65 | – | – |
| CC(=O)N[C@H]1CC2(CCN(C3CCOCC3)CC2)c2ccccc21 [compound 206] | xxx (activity was measured to be less than 0.1 μM) | 65 to 85 | x (activity was measured to be greater than 1.0 μM) | < 65 | – | – |
| Fc1ccc2c(c1)C1(CCN(C[C@H]3C[C@H]4CC[C@H]3C4)CC1)CO2 [compound 207] | xx (activity was measured to be between 0.1 μM and 1.0 μM) | 65 to 85 | x (activity was measured to be greater than 1.0 μM) | < 65 | – | – |
| Cc1ccc2c(c1)C1(CCN(C3CC4CCC3C4)CC1)CN2C(=O)c1cc(C)on1 (stereo not drawn) [compound 208] | xx (activity was measured to be between 0.1 μM and 1.0 μM) | < 65 | x (activity was measured to be greater than 1.0 μM) | < 65 | – | – |
